Assay results from PubChem BioAssay (NCI).
Several values for one entry are separate records, joined by “and”; a condition that tells them apart may be missing. Identical values can stand only once.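 Compound exposure: 48 hours, 5 concentrations, 96-well plates. The concentration for 50% growth inhibition is given as GI50. At the TGI there is no net growth.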

Assays:
Assay in all cases: inhibition of tumour cell growth, NCI panel, 48 h
HT29 colon = test system: HT29 colon
RXF 393 renal = test system: RXF 393 renal
M19-MEL melanoma = test system: M19-MEL melanoma
SF-268 CNS = test system: SF-268 CNS
OVCAR-4 ovarian = test system: OVCAR-4 ovarian
U251 CNS = test system: U251 CNS
NCI-H460 lung = test system: NCI-H460 lung
UO-31 renal = test system: UO-31 renal
786-0 renal = test system: 786-0 renal
NCI-H226 lung = test system: NCI-H226 lung

| SMILES | TGI (HT29 colon) | TGI (RXF 393 renal) [µM] | TGI (M19-MEL melanoma) | TGI (SF-268 CNS) [µM] | TGI (OVCAR-4 ovarian) | TGI (U251 CNS) | TGI (NCI-H460 lung) [µM] | TGI (UO-31 renal) | TGI (786-0 renal) [µM] | TGI (NCI-H226 lung) [µM] | GI50 (M19-MEL melanoma) [µM] | GI50 (SF-268 CNS) [µM] | GI50 (OVCAR-4 ovarian) [µM] | GI50 (U251 CNS) [µM] | GI50 (NCI-H460 lung) [µM] |
| --- | --- | --- | --- | --- | --- | --- | --- | --- | --- | --- | --- | --- | --- | --- | --- |
| CCCCC(=O)OCC(=O)[C@]1(O)Cc2c(O)c3c(c(O)c2[C@@H](OC2CC(NC(=O)C(F)(F)F)C(O)C(C)O2)C1)C(=O)c1c(OC)cccc1C3=O (stereo not given in full) | > 100 µM | 2.62 | 1.9 µM | 4.99 | 8.71 µM | 2.81 µM | 2.48 | 3.45 µM | 1.35 | 0.192 | – | – | – | – | – |
| O=C1C(=O)N(c2ccc(Cl)cc2Cl)C(=O)C(=O)C1c1nc2ccccc2s1 | > 100 µM | > 100 | > 100 µM | > 100 | > 100 µM | > 100 µM | > 100 | > 100 µM | > 100 | > 100 | – | – | – | – | – |
| CN1C(=O)C(C)(C)C2(SC(C)(C)C2(C)C)N(C)C1=S (stereo not given) | > 100 µM | > 100 | > 100 µM | > 100 | > 100 µM | > 100 µM | > 100 | > 100 µM | > 100 | > 100 | – | – | – | – | – |
| COC1CCC2C(NS(=O)(=O)c3ccc(C)cc3)CCCC2O1 (stereo not given) (tested in a mixture with another compound) | > 34.5 µM | > 34.5 | > 34.5 µM | > 34.5 | > 34.5 µM | > 34.5 µM | > 34.5 | > 34.5 µM | > 34.5 | > 34.5 | – | – | – | – | – |
| CCOc1ccc(NC(=O)C(=O)CC(=O)c2c[n+](=O)c3cc(C)c(C)cc3n2[O-])cc1 | > 100 µM | > 100 | > 100 µM | > 100 | > 100 µM | > 100 µM | > 100 | > 100 µM | > 100 | > 100 | – | – | – | – | – |
| O=C(CC1(O)C(=O)Nc2c(Cl)cc(Cl)cc21)c1ccc(Br)cc1Br (stereo not given) | 40.9 µM | 26.2 | 25.1 µM | 24 | 29.5 µM | 28.5 µM | 28.9 | 29.5 µM | 25.5 | 34.8 | – | – | – | – | – |
| COC(=O)[C@@H]1[C@H](O)[C@H](C)[C@H](O)[C@@](C)(O)/C=C\C=C(C)C(=O)Nc2c(C)c(OC(C)=O)c3c(c2O)C(=O)C(C)=C2OCOC(=C23)C(C)=C[C@@](C)(O)[C@H](O)[C@@H](C)[C@H]1OC(C)=O | > 100 µM and 66.9 µM | > 100 | > 100 µM and 21.6 µM and 28.3 µM | > 100 | > 100 µM and 66.9 µM | > 100 µM and > 66.9 µM and 62.8 µM | > 100 | > 100 µM and 66.9 µM | > 100 | > 100 | 15 | > 66.9 | 63.2 | > 66.9 | > 66.9 |
| C[C@]12CC[C@H](O)CC1=CC[C@@H]1C2CC[C@]2(C)C(=O)N(N)C(=O)CC12 (stereo not given in full) | > 100 µM | > 100 | > 100 µM | > 100 | > 100 µM | > 100 µM | > 100 | > 100 µM | > 100 | > 100 | – | – | – | – | – |
| CCOC(=O)C1=C(C)NC(=S)NC1c1ccccc1 (stereo not given) | > 100 µM | > 100 | > 58.9 µM | > 100 | > 100 µM | > 56.2 µM | > 100 | > 57.1 µM | > 100 | > 100 | – | – | – | – | – |
| COC(CN1C(=O)c2cccc3cccc(c23)C1=O)OC | > 100 µM | > 100 | > 100 µM | > 100 | > 100 µM | > 100 µM | > 100 | > 100 µM | > 100 | > 100 | – | – | – | – | – |
| COc1ccc2c3c1C(=O)CCCC3CO2 (stereo not given) | > 100 µM | > 100 | > 100 µM | > 100 | > 100 µM | > 100 µM | > 100 | > 100 µM | > 100 | > 100 | – | – | – | – | – |
| Brc1ccc(N=c2nc3ccccn3n3nc(-c4ccccc4)cc23)cc1 | > 100 µM | 51.1 | > 100 µM | > 100 | 20.7 µM | > 100 µM | > 100 | > 100 µM | 65.2 | > 100 | – | – | – | – | – |
